Assay results taken from patent US9358266B2, “Treatment of sepsis using complement inhibitors” (The Trustees of the University of Pennsylvania, priority 2010, dated 2016).

How the values were obtained:
primate C3 = primate C3 (Homo sapiens, UniProt P01024); conditions: Janssen et al. 2007; cited from earlier work
baboon complement = conditions: relative to human complement; Sahu et al. 2003; cited from earlier work
complement [1] = experiment: Complement activation in LD100 model of E. coli sepsis in baboons; type: in vivo, Papio cyanocephalus; conditions: for % Complement Activation at T+120 min: untreated avg. 2.8
Description: (§1) Reagents, Compstatin analog and live E. coli organisms were obtained or prepared as described in Example 1. Papio cyanocephalus baboons were infused with 2-3×10^10 CFU/kg live E. coli (LD100 dose) as described (Taylor F B, Jr., et al., 2000, Blood 95: 1680-1686). The time point at which the infusion was started was indicated as T-0, a time point of n minutes or hours thereafter referred to as T+n minutes (or hours). The Compstatin analog was administered at three different concentrations as an intravenous bolus followed by continuous infusion.
(§2) Complement activity was measured in accordance with known methods. Survival time was also recorded.

[2] = test system: baboons infused with live E. coli (LD100 dose); experiment: Survival time in LD100 model of E. coli sepsis in baboons; type: in vivo, Papio cyanocephalus; conditions: for Survival Time: no antibiotics
Description: as §1, §2

human complement = conditions: relative to baboon complement; Sahu et al. 2003; cited from earlier work
[3] = test system: baboons infused with live E. coli (LD50 dose); experiment: Hematological parameters and cell accumulation in organs, baboon LD50 E. coli sepsis; type: in vivo, Papio cyanocephalus
[4] = test system: baboons infused with live E. coli (LD50 dose); experiment: Immunofluorescence and qRT-PCR of hemostatic proteins (PAI-1, TF, TFPI, TM) in lung and liver, baboon LD50 E. coli sepsis; type: in vivo, Papio cyanocephalus; conditions: for PAI1 mRNA in liver: vs non-challenged controls (1±0.6), E. coli alone 22-fold (±9)
complement [5] = experiment: Complement activation products and complement activity in plasma, baboon LD50 E. coli sepsis; type: in vivo, Papio cyanocephalus
[6] = test system: baboons infused with live E. coli (LD50 dose); experiment: Histopathological analysis of organs, baboon LD50 E. coli sepsis; type: in vivo, Papio cyanocephalus
[7] = test system: baboons infused with live E. coli (LD50 dose); experiment: Plasma cytokines multiplex assay, baboon LD50 E. coli sepsis; type: in vivo, Papio cyanocephalus
[8] = test system: baboons infused with live E. coli (LD50 dose); experiment: Immunofluorescence of complement pathway proteins in kidney, baboon LD50 E. coli sepsis; type: in vivo, Papio cyanocephalus
[9] = test system: baboons infused with live E. coli (LD50 dose); experiment: Blood pressure and organ function biochemical tests, baboon LD50 E. coli sepsis; type: in vivo, Papio cyanocephalus
[10] = test system: baboons infused with live E. coli (LD50 dose); experiment: Coagulation tests (fibrinogen, FDP, APTT), baboon LD50 E. coli sepsis; type: in vivo, Papio cyanocephalus
[11] = lung cryosections immunofluorescence, both early and late treatments, FIG. 5A
[12] = septic baboons, infusion with Compstatin analog
[13] = histology at 24 hrs vs non-treated group
[14] = both preventive and rescue therapy, data not shown
[15] = immunofluorescence MFI of kidney cryosections, T+24, T0 and T+5 treatment, FIG. 2
[16] = kidney immunofluorescence, FIG. 2

Sequence of primate C3 (P01024 23-1663): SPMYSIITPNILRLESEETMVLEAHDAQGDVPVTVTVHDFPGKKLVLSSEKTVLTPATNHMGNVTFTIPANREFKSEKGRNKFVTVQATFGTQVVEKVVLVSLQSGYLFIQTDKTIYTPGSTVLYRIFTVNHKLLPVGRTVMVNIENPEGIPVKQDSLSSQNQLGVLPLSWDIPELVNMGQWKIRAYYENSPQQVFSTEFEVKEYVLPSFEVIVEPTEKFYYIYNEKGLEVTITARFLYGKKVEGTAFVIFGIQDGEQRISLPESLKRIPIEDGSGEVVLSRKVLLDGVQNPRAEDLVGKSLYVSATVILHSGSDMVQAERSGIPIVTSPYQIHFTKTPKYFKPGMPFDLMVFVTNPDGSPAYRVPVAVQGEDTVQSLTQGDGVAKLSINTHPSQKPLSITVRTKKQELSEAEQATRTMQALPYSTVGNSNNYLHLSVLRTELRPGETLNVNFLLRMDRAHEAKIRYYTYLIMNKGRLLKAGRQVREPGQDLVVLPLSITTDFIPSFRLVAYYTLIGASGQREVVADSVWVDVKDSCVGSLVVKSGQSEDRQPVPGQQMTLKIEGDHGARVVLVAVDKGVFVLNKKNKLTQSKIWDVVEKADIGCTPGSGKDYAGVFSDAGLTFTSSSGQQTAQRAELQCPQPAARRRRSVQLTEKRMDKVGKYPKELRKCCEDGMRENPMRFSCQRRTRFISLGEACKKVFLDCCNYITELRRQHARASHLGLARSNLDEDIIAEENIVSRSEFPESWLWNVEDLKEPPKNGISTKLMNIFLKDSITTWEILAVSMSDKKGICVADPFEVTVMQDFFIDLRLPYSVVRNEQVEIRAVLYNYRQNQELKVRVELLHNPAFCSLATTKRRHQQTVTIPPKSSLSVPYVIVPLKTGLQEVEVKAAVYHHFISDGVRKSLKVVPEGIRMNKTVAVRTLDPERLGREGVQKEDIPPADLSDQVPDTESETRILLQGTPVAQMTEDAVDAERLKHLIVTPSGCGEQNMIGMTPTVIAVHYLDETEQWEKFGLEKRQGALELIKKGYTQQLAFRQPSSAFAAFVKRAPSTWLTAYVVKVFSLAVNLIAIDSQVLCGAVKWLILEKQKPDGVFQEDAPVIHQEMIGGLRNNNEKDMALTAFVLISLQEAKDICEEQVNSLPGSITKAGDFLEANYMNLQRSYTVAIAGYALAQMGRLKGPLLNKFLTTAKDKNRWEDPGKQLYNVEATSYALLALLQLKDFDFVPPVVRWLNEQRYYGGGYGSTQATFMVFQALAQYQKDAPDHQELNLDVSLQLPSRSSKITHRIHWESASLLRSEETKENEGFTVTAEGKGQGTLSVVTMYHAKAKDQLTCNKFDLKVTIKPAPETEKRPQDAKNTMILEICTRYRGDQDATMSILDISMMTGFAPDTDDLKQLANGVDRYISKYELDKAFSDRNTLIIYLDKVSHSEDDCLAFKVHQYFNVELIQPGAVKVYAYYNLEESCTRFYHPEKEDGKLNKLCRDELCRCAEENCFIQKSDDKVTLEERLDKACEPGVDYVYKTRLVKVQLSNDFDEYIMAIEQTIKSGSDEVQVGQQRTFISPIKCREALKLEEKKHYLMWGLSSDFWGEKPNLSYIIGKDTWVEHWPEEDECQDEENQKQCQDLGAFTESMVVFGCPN

CC[C@H](C)[C@H](N)C(=O)N[C@H]1CSSC[C@@H](C(=O)N[C@H](C(N)=O)[C@@H](C)O)NC(=O)[C@H](CCCN=C(N)N)NC(=O)[C@H](Cc2cnc[nH]2)NC(=O)[C@H](Cc2cnc[nH]2)NC(=O)CNC(=O)[C@H](Cc2c[nH]c3ccccc23)NC(=O)[C@H](CC(=O)O)NC(=O)[C@H](CCC(N)=O)NC(=O)[C@H](C(C)C)NC(=O)[C@H](C(C)C)NC1=O [Compstatin, Ile-Cys-Val-Val-Gln-Asp-Trp-Gly-His-His-Arg-Cys-Thr]
binding to primate C3 (primate C3): specifically binds | inhibition of baboon complement (baboon complement): approximately equimolar concentrations | % Complement Activation at T+120 min (complement [1]; animal 1, bolus 0.33 mg/kg T−0, 1.74 mg/kg T+60, infusion 20 μg/min/kg (8 hrs), total 58 mg): 0.6% | % Complement Activation at T+120 min (complement [1]; animal 2, bolus 1.0 mg/kg T−0, 2.3 mg/kg T+60, infusion 20 μg/min/kg (8 hrs), total 78 mg): 0.5% | % Complement Activation at T+120 min (complement [1]; animal 3, bolus 10 mg/kg T−0, infusion 200 μg/min/kg (8 hrs), total 760 mg): 0.0% | inhibition of complement activation by T+120 minutes (complement [1]; animal receiving the highest concentration): complete inhibition | inhibition of complement activation by T+120 minutes (complement [1]; animals receiving the lesser concentrations): substantial inhibition | Survival Time ([2]; animal 1, bolus 0.33 mg/kg T−0, 1.74 mg/kg T+60, infusion 20 μg/min/kg (8 hrs)): 31.5 h | Survival Time ([2]; animal 2, bolus 1.0 mg/kg T−0, 2.3 mg/kg T+60, infusion 20 μg/min/kg (8 hrs)): 7.0 h | Survival Time ([2]; animal 3, bolus 10 mg/kg T−0, infusion 200 μg/min/kg (8 hrs)): 11.5 h | survival of treated animals ([2]; no antibiotic treatment): died within a few hours | inhibition of human complement (human complement): approximately equimolar concentrations

Ac-I[CVW(Me)QDWGAHRCT]I-NH2 [Compstatin analog]
accumulation of macrophages in the lung ([3]; FIG. 3C): lower accumulation | accumulation of platelets in the lung and on the surface of the large vessels ([3]; FIG. 3D-E): lower accumulation | WBC count in blood ([3]; both prevention and rescue regimens, FIG. 3A): faster WBC recovery | platelet count in blood (platelet consumption) ([3]; both prevention and rescue regimens, FIG. 3B): lower plasma platelet consumption | number of neutrophils ([3]; immunostaining for cell specific markers, not shown): without significant changes | CD68 positive macrophages ([3]; immunostaining, lung, FIG. 3C): significant decrease | C5b9 deposition on aggregated platelets ([3]; lung and large vessels, FIG. 3D-E): decreased C5b9 deposition | E. coli induced PAI-1 staining in lung [4, 11]: decreased | E. coli induced TF staining in lung [4, 11]: decreased | TFPI in endothelial cells of lung [4, 11]: protected against sepsis-induced downregulation | TM in endothelial cells of lung [4, 11]: protected against sepsis-induced downregulation | TF expression in the lung ([4]; treated animals): decrease | monocyte/macrophages infiltration in the lung ([4]; treated animals): decrease | PAI1 mRNA in liver ([4]; treated at T0, mean (±SEM 8)): 8 fold | PAI1 mRNA in liver ([4]; treated at T+5, mean (±SEM 0.8)): 4 fold | PAI-1 expression in endothelial cells and macrophages ([4]; treated versus non-treated septic baboons): down-regulated | plasma complement activity (complement [5]; 10 mg/kg iv bolus + 60 μg/kg/min, both preventive (T0 to T+8) and rescue (T+5 to T+11) treatments, FIG. 1A): inhibited | plasma TCC levels (complement [5]; 10 mg/kg iv bolus + 60 μg/kg/min, both preventive (T0 to T+8) and rescue (T+5 to T+11) treatments, FIG. 1B): inhibited | late rise of plasma TCC levels (complement [5]; rescue regimen (T+5 to T+11) compared with prevention group, FIG. 1B): averting the late rise observed in the prevention group | C3a generation (complement [5]; [12]): rapidly inhibited | C3b generation (complement [5]; [12]): rapidly inhibited | histopathologic changes of the tissues (graded 0 to 4) ([6]; T+24, two treated groups (T0, T+5) vs E coli challenge group, P<0.001, with the exception of the lung congestion, FIG. 7): significantly less severe | cell death in adrenals and spleen [6, 13]: decreased cell death | hepatocyte vacuolization and liver degeneration [6, 13]: lack of hepatocyte vacuolization and liver degeneration | leukocyte infiltration in the lung, liver adrenals and spleen [6, 13]: less leukocyte infiltration | thrombosis or capillary leak in the lungs [6, 13]: no obvious signs of thrombosis or capillary leak | tubular necrosis and glomerular thrombosis in the kidneys [6, 13]: no or less tubular necrosis and glomerular thrombosis | organ protection by histological analysis ([6]; organs collected after 24 hrs): substantial organ-protection | effect on plasma cytokines ([7]; 23-plex assay, nine increased by sepsis, except eotaxin and IL-6, data not shown): marginal | plasma IL-6 [7, 14]: reduction | plasma eotaxin [7, 14]: reduction | C3b deposition in the kidney [8, 15]: significantly inhibited | C5b9 deposition in the kidney [8, 15]: significantly inhibited | MBL deposition in the kidney [8, 15]: significantly inhibited | shedding of CD55 from the endothelial surface [8, 16]: protected against shedding | shedding of CD59 from the endothelial surface [8, 16]: protected against shedding | mRNA expression of CD55 and CD59 ([8]; qRT-PCR, data not shown): without significantly affecting | creatinine, magnitude of the response ([9]; T+8 and T+24, two treatment groups vs non treated septic animals, FIG. 6B): lower | LDH, magnitude of the response ([9]; T+8 and T+24, two treatment groups vs non treated septic animals, FIG. 6C): lower | ALT, magnitude of the response ([9]; T+8 and T+24, two treatment groups vs non treated septic animals, FIG. 6D): lower | AST, magnitude of the response ([9]; T+8 and T+24, two treatment groups vs non treated septic animals, FIG. 6E): lower | decrease of mean systemic arterial blood pressure ([9]; early treatment (T0 to T+8), FIG. 6A): virtually abolished this decrease | mean systemic arterial blood pressure ([9]; treatment during the second stage (T+5 to T+11), compared with septic untreated baboons, FIG. 6A): higher recovery of the blood pressure in the late phase | fibrinogen levels ([10]; after 24 hours, compared with non-treated animals, FIG. 4A): fully recovered and overshot the initial values | fibrinogen consumption ([10]; first eight hours post-challenge, FIG. 4A): reduced fibrinogen consumption | FDP levels ([10]; treated vs non-treated animals, FIG. 4B): significantly lower | APTT ([10]; treated vs non-treated animals, FIG. 4C): slightly decreased
